Among the data in patent US11713338B2, “Cyclic peptides multimers targeting α-4-β-7 integrin” (priority 2016, dated 2023) are IC50 values, retold here.

SMILES strings stand for the structures.

The test concerns the target T1, integrin α4β7 (RPMI8866 human cells adhering to MAdCAM-1) (Homo sapiens, UniProt P13612+P26010).
T1 construct: RMP18866 cells, which express integrin α4β7; host or cells: RPMI8866
T1 sequence (P13612 34-1032): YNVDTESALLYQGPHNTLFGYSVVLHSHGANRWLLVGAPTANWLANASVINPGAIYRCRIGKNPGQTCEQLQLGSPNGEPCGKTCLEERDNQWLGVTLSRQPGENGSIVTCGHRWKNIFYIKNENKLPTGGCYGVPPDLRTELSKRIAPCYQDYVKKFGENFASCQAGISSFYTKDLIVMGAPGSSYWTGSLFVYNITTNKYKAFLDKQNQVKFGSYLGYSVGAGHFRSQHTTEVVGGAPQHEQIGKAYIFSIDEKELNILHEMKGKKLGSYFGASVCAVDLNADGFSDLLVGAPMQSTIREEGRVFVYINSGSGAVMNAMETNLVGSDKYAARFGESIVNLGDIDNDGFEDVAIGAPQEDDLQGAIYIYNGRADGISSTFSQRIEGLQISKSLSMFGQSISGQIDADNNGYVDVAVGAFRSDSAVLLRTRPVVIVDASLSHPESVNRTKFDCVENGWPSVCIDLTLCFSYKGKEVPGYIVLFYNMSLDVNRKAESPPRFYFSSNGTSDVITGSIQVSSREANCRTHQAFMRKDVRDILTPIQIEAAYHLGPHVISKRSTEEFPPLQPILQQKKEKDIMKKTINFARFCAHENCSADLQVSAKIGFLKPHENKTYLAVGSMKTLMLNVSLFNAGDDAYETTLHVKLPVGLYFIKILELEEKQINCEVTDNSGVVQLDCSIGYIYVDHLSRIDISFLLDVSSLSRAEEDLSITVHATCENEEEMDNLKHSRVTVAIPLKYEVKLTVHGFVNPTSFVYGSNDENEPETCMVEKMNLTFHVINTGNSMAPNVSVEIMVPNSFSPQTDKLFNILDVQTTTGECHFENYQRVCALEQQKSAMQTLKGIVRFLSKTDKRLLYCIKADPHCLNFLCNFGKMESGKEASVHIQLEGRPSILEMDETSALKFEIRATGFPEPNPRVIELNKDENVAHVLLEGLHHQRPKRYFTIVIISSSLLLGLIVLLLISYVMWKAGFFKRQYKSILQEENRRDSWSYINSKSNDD
T1 sequence (P26010 20-798): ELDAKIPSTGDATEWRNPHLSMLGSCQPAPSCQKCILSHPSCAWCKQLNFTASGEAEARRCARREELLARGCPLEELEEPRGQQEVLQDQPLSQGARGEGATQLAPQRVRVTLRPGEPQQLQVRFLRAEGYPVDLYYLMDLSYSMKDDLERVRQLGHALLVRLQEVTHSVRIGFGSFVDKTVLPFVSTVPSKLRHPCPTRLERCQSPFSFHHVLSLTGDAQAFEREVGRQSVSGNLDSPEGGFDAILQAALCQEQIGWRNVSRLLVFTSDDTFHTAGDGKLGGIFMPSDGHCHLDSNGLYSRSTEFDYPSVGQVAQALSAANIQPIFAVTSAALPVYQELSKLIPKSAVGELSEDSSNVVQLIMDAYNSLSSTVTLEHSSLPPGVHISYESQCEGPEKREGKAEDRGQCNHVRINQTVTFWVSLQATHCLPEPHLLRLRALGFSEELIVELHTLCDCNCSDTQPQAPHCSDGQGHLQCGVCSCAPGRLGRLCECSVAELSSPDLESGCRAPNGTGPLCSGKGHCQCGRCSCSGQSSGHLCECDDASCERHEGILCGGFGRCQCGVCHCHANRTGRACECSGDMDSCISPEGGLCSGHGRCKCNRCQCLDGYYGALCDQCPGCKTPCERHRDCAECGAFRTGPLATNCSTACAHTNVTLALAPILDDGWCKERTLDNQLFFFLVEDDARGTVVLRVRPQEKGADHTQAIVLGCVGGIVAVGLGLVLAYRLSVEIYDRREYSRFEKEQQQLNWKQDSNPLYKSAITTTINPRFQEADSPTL
As to the kind of experiment: Integrin α4β7-MAdCAM cell adhesion assay (RPMI8866 cells). Format: cell-based. Particulars: RPMI8866 cells adhering to MAdCAM; read-out: RPMI8866 Adhesion α4β7/MAdCAM IC50. On the procedure:
Integrin α4β7-MAdCAM Cell Adhesion Assay
RPMI8866 cells were resuspended at 10 million cells/ml in PBS containing […] and incubated at 37° C. for 30 min in a 50 ml tube. […] The plate was emptied by inverting and blotting on paper towels and washed manually twice with PBS. 100 μl PBS was then added to each well. […] To calculate the dose response, the fluorescence value of control wells not containing cells was subtracted from each test well.

Consider `CC(C)C[C@@H]1NC(=O)c2ccc(-c3ccc(N4CCN(C(=O)CN(C)CC(=O)N5CCN(c6ccc(-c7ccc8cc7CNC(=O)[C@@H]7CCCN7[C@H](C(=O)NC(C)(C)C)[C@H](C)NC(=O)[C@H]([C@@H](C)O)NC(=O)[C@H](CC(=O)O)NC(=O)[C@H](CC(C)C)NC8=O)cc6)CC5)CC4)cc3)c(c2)CNC(=O)[C@@H]2CCCN2[C@H](C(=O)NC(C)(C)C)[C@H](C)NC(=O)[C@H]([C@@H](C)O)NC(=O)[C@H](CC(=O)O)NC1=O` [Compound 501], for which the IC50 was found to be 38 nM.
In the case of `CC(C)C[C@@H]1NC(=O)c2ccc(-c3ccc(N4CCN(C(=O)CCOCCOCCOCCOCCOCCOCCOCCOCCOCCOCCOCCOCCOCCC(=O)N5CCN(c6ccc(-c7ccc8cc7CNC(=O)[C@@H]7CCCN7[C@H](C(=O)NC(C)(C)C)[C@H](C)NC(=O)[C@H]([C@@H](C)O)NC(=O)[C@H](CC(=O)O)NC(=O)[C@H](CC(C)C)NC8=O)cc6)CC5)CC4)cc3)c(c2)CNC(=O)[C@@H]2CCCN2[C@H](C(=O)NC(C)(C)C)[C@H](C)NC(=O)[C@H]([C@@H](C)O)NC(=O)[C@H](CC(=O)O)NC1=O` [Compound 504], the IC50 was 42 nM.
Next, `CC(C)C[C@@H]1NC(=O)c2ccc(-c3ccc(N4CCN(C(=O)COCCOCCOCC(=O)N5CCN(c6ccc(-c7ccc8cc7CNC(=O)[C@@H]7CCCN7[C@H](C(=O)NC(C)(C)C)[C@H](C)NC(=O)[C@H]([C@@H](C)O)NC(=O)[C@H](CC(=O)O)NC(=O)[C@H](CC(C)C)NC8=O)cc6)CC5)CC4)cc3)c(c2)CNC(=O)[C@@H]2CCCN2[C@H](C(=O)NC(C)(C)C)[C@H](C)NC(=O)[C@H]([C@@H](C)O)NC(=O)[C@H](CC(=O)O)NC1=O` [Compound 508]: 46 nM; `CC(C)C[C@@H]1NC(=O)c2ccc(-c3ccc(N4CCN(C(=O)CCOCCOCCOCCOCCOCCC(=O)N5CCN(c6ccc(-c7ccc8cc7CNC(=O)[C@@H]7CCCN7[C@H](C(=O)NC(C)(C)C)[C@H](C)NC(=O)[C@H]([C@@H](C)O)NC(=O)[C@H](CC(=O)O)NC(=O)[C@H](CC(C)C)NC8=O)cc6)CC5)CC4)cc3)c(c2)CNC(=O)[C@@H]2CCCN2[C@H](C(=O)NC(C)(C)C)[C@H](C)NC(=O)[C@H]([C@@H](C)O)NC(=O)[C@H](CC(=O)O)NC1=O` [Compound 509]: 31 nM.
Next, `CC(C)C[C@@H]1NC(=O)c2ccc(-c3ccc(N4CCN(C(=O)CCOCCOCCOCCOCCOCCOCCOCCC(=O)N5CCN(c6ccc(-c7ccc8cc7CNC(=O)[C@@H]7CCCN7[C@H](C(=O)NC(C)(C)C)[C@H](C)NC(=O)[C@H]([C@@H](C)O)NC(=O)[C@H](CC(=O)O)NC(=O)[C@H](CC(C)C)NC8=O)cc6)CC5)CC4)cc3)c(c2)CNC(=O)[C@@H]2CCCN2[C@H](C(=O)NC(C)(C)C)[C@H](C)NC(=O)[C@H]([C@@H](C)O)NC(=O)[C@H](CC(=O)O)NC1=O` [Compound 510]: 87 nM; `CC(C)C[C@@H]1NC(=O)c2ccc(-c3ccc(N4CCN(C(=O)Cc5ccc(CC(=O)N6CCN(c7ccc(-c8ccc9cc8CNC(=O)[C@@H]8CCCN8[C@H](C(=O)NC(C)(C)C)[C@H](C)NC(=O)[C@H]([C@@H](C)O)NC(=O)[C@H](CC(=O)O)NC(=O)[C@H](CC(C)C)NC9=O)cc7)CC6)cc5)CC4)cc3)c(c2)CNC(=O)[C@@H]2CCCN2[C@H](C(=O)NC(C)(C)C)[C@H](C)NC(=O)[C@H]([C@@H](C)O)NC(=O)[C@H](CC(=O)O)NC1=O` [Compound 516]: 98 nM; `CC(C)C[C@@H]1NC(=O)[C@H]2CCCCN2C(=O)[C@H](Cc2ccc(CNC(=O)CCCCC(=O)NCc3ccc(C[C@@H]4NC(=O)[C@@H]5CCCN5[C@H](C(=O)NC(C)(C)C)[C@H](C)NC(=O)[C@H]([C@@H](C)O)NC(=O)[C@H](CC(=O)O)NC(=O)[C@H](CC(C)C)NC(=O)[C@H]5CCCCN5C4=O)cc3)cc2)NC(=O)[C@@H]2CCCN2[C@H](C(=O)NC(C)(C)C)[C@H](C)NC(=O)[C@H]([C@@H](C)O)NC(=O)[C@H](CC(=O)O)NC1=O` [Compound 523]: 434 nM.
`CC(C)C[C@@H]1NC(=O)[C@H]2CCCCN2C(=O)[C@H](Cc2ccc(CNC(=O)CCCCCC(=O)NCc3ccc(C[C@@H]4NC(=O)[C@@H]5CCCN5[C@H](C(=O)NC(C)(C)C)[C@H](C)NC(=O)[C@H]([C@@H](C)O)NC(=O)[C@H](CC(=O)O)NC(=O)[C@H](CC(C)C)NC(=O)[C@H]5CCCCN5C4=O)cc3)cc2)NC(=O)[C@@H]2CCCN2[C@H](C(=O)NC(C)(C)C)[C@H](C)NC(=O)[C@H]([C@@H](C)O)NC(=O)[C@H](CC(=O)O)NC1=O` [Compound 524]: the IC50 was found to be 447 nM.
For `CC(C)C[C@@H]1NC(=O)[C@H]2Cc3ccccc3CN2C(=O)[C@H](Cc2cccc(CNC(=O)CCCCCCC(=O)NCc3cccc(C[C@@H]4NC(=O)[C@@H]5CCCN5[C@H](C(=O)NC(C)(C)C)[C@H](C)NC(=O)[C@H]([C@@H](C)O)NC(=O)[C@H](CC(=O)O)NC(=O)[C@H](CC(C)C)NC(=O)[C@H]5Cc6ccccc6CN5C4=O)c3)c2)NC(=O)[C@@H]2CCCN2[C@H](C(=O)NC(C)(C)C)[C@H](C)NC(=O)[C@H]([C@@H](C)O)NC(=O)[C@H](CC(=O)O)NC1=O` [Compound 528], the IC50 turned out to be 47 nM.
For `CC(C)C[C@@H]1NC(=O)[C@H]2Cc3ccccc3CN2C(=O)[C@H](Cc2cccc(CNC(=O)CCCCCCCC(=O)NCc3cccc(C[C@@H]4NC(=O)[C@@H]5CCCN5[C@H](C(=O)NC(C)(C)C)[C@H](C)NC(=O)[C@H]([C@@H](C)O)NC(=O)[C@H](CC(=O)O)NC(=O)[C@H](CC(C)C)NC(=O)[C@H]5Cc6ccccc6CN5C4=O)c3)c2)NC(=O)[C@@H]2CCCN2[C@H](C(=O)NC(C)(C)C)[C@H](C)NC(=O)[C@H]([C@@H](C)O)NC(=O)[C@H](CC(=O)O)NC1=O` [Compound 529], the IC50 was 47 nM.
The figure for `CC(C)C[C@@H]1NC(=O)C[C@H](CCCCN)N(C)C(=O)[C@H](CCCCNC(=O)CCC(=O)NCCCC[C@@H]2NC(=O)[C@@H]3CCCN3[C@H](C(=O)NC(C)(C)C)[C@H](C)NC(=O)[C@H]([C@@H](C)O)NC(=O)[C@H](CC(=O)O)NC(=O)[C@H](CC(C)C)NC(=O)C[C@H](CCCCN)N(C)C2=O)NC(=O)[C@@H]2CCCN2[C@H](C(=O)NC(C)(C)C)[C@H](C)NC(=O)[C@H]([C@@H](C)O)NC(=O)[C@H](CC(=O)O)NC1=O` [Compound 531] is 23 nM.
